Experimental data reported in PubChem BioAssay (NCI).
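The compound was tested at five concentrations on cells cultured in 96-well plates, with a 48-hour exposure period. Here, GI50 denotes the concentration required for 50% inhibition of growth. TGI marks complete inhibition of growth.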

Tests used:
Experiment in all cases: inhibition of tumour cell growth, NCI panel, 48 h
UO-31 renal = test system: UO-31 renal
SK-MEL-28 melanoma = test system: SK-MEL-28 melanoma
SW-620 colon = test system: SW-620 colon
SNB-75 CNS = test system: SNB-75 CNS
OVCAR-4 ovarian = test system: OVCAR-4 ovarian
MOLT-4 leukemia = test system: MOLT-4 leukemia
NCI-H460 lung = test system: NCI-H460 lung
DU-145 prostate = test system: DU-145 prostate
T-47D breast = test system: T-47D breast
NCI/ADR-RES ovarian = test system: NCI/ADR-RES ovarian

| SMILES | TGI (UO-31 renal) | TGI (SK-MEL-28 melanoma) | TGI (SW-620 colon) | TGI (SNB-75 CNS) | TGI (OVCAR-4 ovarian) | TGI (MOLT-4 leukemia) | TGI (NCI-H460 lung) | TGI (DU-145 prostate) | TGI (T-47D breast) | TGI (NCI/ADR-RES ovarian) | GI50 (UO-31 renal) | GI50 (DU-145 prostate) | GI50 (SK-MEL-28 melanoma) | GI50 (SW-620 colon) | GI50 (SNB-75 CNS) | GI50 (NCI-H460 lung) |
| --- | --- | --- | --- | --- | --- | --- | --- | --- | --- | --- | --- | --- | --- | --- | --- | --- |
| COC(=O)C(CCCC1(c2ccccc2)OCCO1)C(C)=O (stereo unspecified) | > 100 µM | > 100 µM | > 100 µM | > 100 µM | > 100 µM | > 100 µM | > 100 µM |  |  |  |  |  |  |  |  |  |
| COCC1OC(OC2C3=C(C(C)C)CCC3(C)/C=C3\C(CCC3(O)COC)C(C)C2O)C(O)C2OC3OC12OC3(C)C1CO1 (stereo unspecified) | 72.1 µM | > 100 µM | > 100 µM | 92.7 µM | > 100 µM | 54 µM | > 100 µM | > 100 µM | > 100 µM |  |  |  |  |  |  |  |
| COc1ccc2nc3cccc([N+](=O)[O-])c3c(NCCO)c2c1 | 0.0504 µM | 0.0626 µM | 0.00862 µM | 0.336 µM | 0.153 µM |  | 0.0233 µM | 0.0619 µM | 0.805 µM | 0.0939 µM |  |  |  |  |  |  |
| Cc1cccc2c1Oc1ccccc1C2NC(=O)c1ccc([N+](=O)[O-])cc1 (stereo unspecified) | > 100 µM | > 100 µM | > 100 µM |  | > 100 µM | > 100 µM | > 100 µM | > 100 µM | > 100 µM | > 100 µM |  |  |  |  |  |  |
| CC1OC(OC2C(O[C@H]3CC[C@@]4(C)[C@@H](CC[C@@H]5[C@@H]4CC[C@]4(C)[C@@H]6[C@H](C[C@@H]54)O[C@]4(CC[C@@H](C)CO4)[C@H]6C)C3)OC(CO)C(OC3OC(CO)C(O)C(OC4OCC(O)C(O)C4O)C3OC3OCC(O)C(O)C3O)C2O)C(O)C(O)C1O (stereo partly specified) | 2.44 µM | 2.04 µM | 0.348 µM | 2.86 µM | 2.89 µM |  | 2.23 µM | 2.73 µM |  | 3.13 µM |  |  |  |  |  |  |
| COc1nc(SC)nc2c1cnn2C1OC(C(O)CO)C(OC)C1O (stereo unspecified) | > 100 µM | > 100 µM | > 100 µM | > 100 µM | > 100 µM | 69 µM | > 100 µM |  |  | > 100 µM |  |  |  |  |  |  |
| O=C1Nc2cccc(Cl)c2/C1=C\c1c(Cl)nc2sccn12 | > 100 µM | > 100 µM | > 100 µM | 26.3 µM |  | > 100 µM | > 100 µM | > 100 µM | > 100 µM | > 100 µM |  |  |  |  |  |  |
| CCOc1ccc(/C(O)=C/c2nc3ccccc3nc2/C=C(\O)c2ccc(OCC)cc2)cc1 | > 100 µM | > 100 µM | > 100 µM |  | > 100 µM | > 100 µM | > 100 µM | > 100 µM | > 100 µM |  |  |  |  |  |  |  |
| C[C@H](Nc1c(O)c2c(c(O)c1Cl)C(=O)C=CC2=O)C(=O)Nc1ccc([N+](=O)[O-])cc1 |  | 4.02 µM | 6.49 µM | > 10 µM | 3.14 µM | > 10 µM | 6.29 µM | 3.22 µM | > 10 µM | 5.05 µM |  |  |  |  |  |  |
| O=C1NC(Cc2c[nH]c3ccccc23)C(=O)N2C(C3CCCCC3)c3[nH]c4ccccc4c3C[C@@H]12 (stereo partly specified) | 33.2 µM | 44.4 µM | 73.7 µM |  | > 100 µM | 34.6 µM |  | > 100 µM |  | 41.2 µM |  |  |  |  |  |  |
| OC12COc3ccccc3C1Oc1ccccc1C2 (stereo unspecified) | > 100 µM |  | > 100 µM | > 100 µM | > 100 µM | > 100 µM |  | > 100 µM | > 100 µM | > 100 µM |  |  |  |  |  |  |
| CCCC/C=C/C1Cc2ccccc2CN1S(=O)(=O)c1ccc(C)cc1 (stereo unspecified) | 18.7 µM | 22.7 µM | 24.1 µM | 37.5 µM | 24.7 µM | 53.3 µM | 31.3 µM |  |  |  |  |  |  |  |  |  |
| CCCCc1c2c(nc3c1CCCC3O)/C(=C/c1ccccc1)CCC2 (stereo unspecified) | > 100 µM | 94.3 µM | 64.2 µM | > 100 µM | > 100 µM | 38.7 µM | > 100 µM |  |  |  |  |  |  |  |  |  |
| CSc1nc(-c2cc3c(c(SC)n2)CCCCC3)cc2c1CCCCC2 | > 100 µM | > 100 µM | > 100 µM | > 100 µM | > 100 µM | > 100 µM | > 100 µM | > 100 µM |  | > 100 µM |  |  |  |  |  |  |
| CCCN(CCCC(NC(C)=O)C(=O)NCc1ccccc1)C(=O)NC (stereo unspecified) | > 100 µM | > 100 µM | > 100 µM | 75.3 µM | > 100 µM | > 100 µM | > 100 µM |  |  |  |  |  |  |  |  |  |
| COc1cc(CCCOC(=O)/C=C/c2ccc(O)c(O)c2)cc(O)c1O | > 100 µM | > 100 µM | 35.9 µM | > 100 µM | > 100 µM | > 100 µM | > 100 µM | > 100 µM | 74.6 µM |  |  |  |  |  |  |  |
| CCOC(=O)c1c(C)c2c(n1C)CCc1cn[nH]c1-2 | > 100 µM | > 100 µM | > 100 µM | > 100 µM | > 100 µM | > 100 µM | > 100 µM |  |  | > 100 µM |  |  |  |  |  |  |
| NCCCNc1nc2ccccc2c2c(=O)c3cc(C(F)(F)F)ccc3sc12 | 2.74 µM | 3.23 µM | 3.18 µM | 2.96 µM |  |  | 3.17 µM | 3.26 µM |  |  | 1.4 µM | 1.82 µM | 1.81 µM | 1.69 µM | 1.53 µM | 1.66 µM |
| COC(OC)c1cccc2c1C(=O)CCC1(O)c3ccccc3C1C2 (stereo unspecified) | > 100 µM | > 100 µM | > 100 µM | > 100 µM | > 100 µM | > 100 µM |  |  |  |  |  |  |  |  |  |  |
| O=[N+]([O-])c1cccc2nc3ccccc3c(NCCc3cccc[n+]3[O-])c12 |  | < 0.01 µM | 0.197 µM |  | 0.212 µM |  | 0.174 µM | < 0.0277 µM | 0.852 µM | 8.67 µM |  |  |  |  |  |  |
| Nc1nc(SCCNC(=O)CCc2ccc(O)cc2)nc2c1ncn2C1OC(CO)C(O)C1O (stereo unspecified) | > 203 µM | > 203 µM | > 203 µM | > 203 µM | > 203 µM | > 203 µM | > 203 µM |  |  |  |  |  |  |  |  |  |
| COc1ccc(C2C3C(=O)C=CC(=O)C3[C@@H]2C)cc1OC (stereo partly specified) | > 100 µM | > 100 µM | > 100 µM | > 100 µM | > 100 µM | 91.9 µM | > 100 µM |  |  |  |  |  |  |  |  |  |
| COc1ccc(C2SCC(=O)N2c2ccc(-n3c(-c4ccccc4)nc4ccccc4c3=O)cc2)cc1OC (stereo unspecified) | > 100 µM | > 100 µM | > 100 µM | 51.7 µM |  | > 100 µM | > 100 µM |  | > 100 µM | > 100 µM |  |  |  |  |  |  |
| Clc1ccc(SCCSCCCCCCCCCCSCCSc2ccc(Cl)cc2)cc1 | > 100 µM | > 100 µM | > 100 µM | > 100 µM |  | > 100 µM | > 100 µM |  |  |  |  |  |  |  |  |  |
